Experimental findings from patent publication US10787419B2, “Cannabinoid receptor mediating iminopyrazole compounds” (The United States of America, as represented by the …, priority 2012, dated 2020) are described below.

One series relates to DIO mice. As to the kind of experiment: mice with diet-induced obesity (DIO) treated orally for 14 days. The format is in vivo. The protocol: Glucose tolerance and insulin sensitivity were determined on the last 2 days of treatment, using i.p. glucose tolerance and insulin sensitivity tests.
The subject of series [1] is CCl4-induced liver fibrosis. As to the kind of experiment: CCl4-induced liver fibrosis model in mice. The format is in vivo. The protocol:
CCL-induced liver fibrosis was generated by intraperitoneal injection of CCL4 (1 ml/kg, diluted 1:10 corn oil), twice weekly for 8 weeks. […] Data represent mean±SEM from 7-8 mice per group. *P<0.05 relative to control. ^#indicates significant treatment effect (P<0.05) relative to CCl4-treated vehicle group.
Fibrosis results from excessive extracellular matrix deposition by myofibroblasts accompanying chronic inflammation and wound healing, and is a key pathogenic process in many organs, including kidneys, lung, and liver.

Another series concerns the target iNOS (Mus musculus (Mouse), UniProt P29477). Nature of the series: iNOS activity in lung homogenates from LPS-treated mouse. In kind it is biochemical.
The next series concerns ZDF rats. Nature of the series: Zucker diabetic fatty (ZDF) rat model of type 2 diabetes. In kind it is in vivo. As to conditions: 10 mg/kg/day oral gavage, 7 days.
A short description of series [2]: in vivo metabolism, metabolite generation in plasma by LC-MS/MS. The note with it: 1 h after oral 10 mg/kg in mice.
The target in the next series is CB1 (Mus musculus (Mouse), UniProt P47746). Nature of the series: radioligand displacement assay in mouse brain membranes (Ki CB1). The format is binding. Background: In a radioligand displacement assay an active substance lowers the binding of a labelled ligand.
Sequence of CB1 (P47746 whole entry): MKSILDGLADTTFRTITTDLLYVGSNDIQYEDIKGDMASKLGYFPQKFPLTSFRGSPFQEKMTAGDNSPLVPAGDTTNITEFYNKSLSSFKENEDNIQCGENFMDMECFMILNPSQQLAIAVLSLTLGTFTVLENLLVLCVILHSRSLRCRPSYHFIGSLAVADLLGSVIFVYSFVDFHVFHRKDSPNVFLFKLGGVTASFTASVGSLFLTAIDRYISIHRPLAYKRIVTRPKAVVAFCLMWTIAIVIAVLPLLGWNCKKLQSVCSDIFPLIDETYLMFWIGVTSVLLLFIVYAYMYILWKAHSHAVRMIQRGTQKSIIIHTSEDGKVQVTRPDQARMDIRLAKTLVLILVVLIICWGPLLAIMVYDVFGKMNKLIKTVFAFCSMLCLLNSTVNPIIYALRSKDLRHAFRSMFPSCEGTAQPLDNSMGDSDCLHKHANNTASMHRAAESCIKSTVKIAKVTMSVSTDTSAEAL
Series [3] can be described thus: tissue levels in brain and plasma after administration to mice. As to conditions: 1 hour after 10 mg/kg to mice; indicating good oral bioavailability.
The next series has as its system recombinant human AMPK. Nature of the series: recombinant AMPK activity assay. In kind it is biochemical. The note with it: rimonabant at 1 μM. From the text:
Guanides and biguanides, such as metformin, are effective as antidiabetic agents linked to their AMPK activating properties (Hardie et al., Chem Biol. 2012, […]; 1222-1236). Guanidine-containing analogs in certain embodiments were screened for activation of recombinant human AMPK, using an assay kit (Cyclex, Nagona, Japan), as illustrated in FIG. 8.
Activators of AMP-activated protein kinase (AMPK), such as guanidines of biguanides such as metformin are useful for the treatment of diabetes owing to their AMPK activating property (Hardie, et al., Chem & Biol 2012, 19(10); 1222-1236). Guanidine analogues of certain embodiments were screened for AMPK activation by using a recombinant AMPK activity assay.

[4] abbreviates: DIO mice, 10 mg/kg/day oral, 14 days.
Setting [5] is: 10 mg/kg/day orally for 4 weeks.

pKi: −log10 of the molar value.

Experimental for iNOS: Cellular iNOS activity was determined after replacing growth medium with reaction mixtures containing appropriate ligands (100 nM). ^& Mice were treated in vivo with vehicle or LPS (25 mg/kg, ip) and sacrificed 6 h later. Crude homogenate prepared from lung were incubated with the indicated ligands and iNOS activity was determined using a radioactivity-based assay.

The term inhibition denotes how much of the control response was suppressed. Read a high inhibition as a strong effect. `CC(=N)N/C(=N\S(=O)(=O)c1ccc(Cl)cc1)N1CC(c2ccccc2)C(c2ccc(Cl)cc2)=N1` (racemic) [Compound 2, 3-(4-chlorophenyl)-N′-((4-chlorophenyl)sulfonyl)-N-(1-iminoethyl)-4-phenyl-4,5-dihydro-1H-pyrazole-1-carboximidamine]: in the series on DIO mice (setting [4]), the “hepatic TG” value is recorded as “reduced”, the hyperinsulinemia result was “abrogated” and the hyperleptinemia entry is recorded as “reduced”. The compound also came in with a food intake reduction in the series on DIO mice (DIO mice, 10 mg/kg/day oral, during the first week) of roughly 20%. In the series with DIO mice (DIO mice, 10 mg/kg/day oral, i.p. glucose tolerance and insulin sensitivity tests, last 2 days), the “glucose intolerance and insulin resistance” value is “nearly completely normalized”. The “In vivo Comments” value in the series on DIO mice (mouse, in vivo) is “anti-diabetic anti-obesity”. Moreover, in series [1] (setting [5]), the “CCl4-induced collagen deposition / liver fibrosis by Sirius red and Masson's trichrome staining” value is on record as “more effective than rimonabant”; the “CCl4-induced elevation of iNOS immunostaining” value (“CCl4-induced elevation” below) is listed as “attenuated”; the “α-SMA, Procollagen-1 and Fibronectin-1 mRNA” value is reported as “more effective than rimonabant”. This compound returned an inhibition at 1 µM against iNOS of roughly 48%. In the series with ZDF rats, the blood glucose entry is recorded as “prevented the increase in blood glucose”; the “insulin and c-peptide levels” value is reported as “prevented”. Besides, in series [2], the in vivo metabolism entry is “underwent in vivo metabolism to liberate the amidine moiety and a metabolite”.

As a reminder, the pKi is the negative decadic logarithm of the Ki, by convention in mol/L. The compound `NC=NC(=NS(=O)(=O)c1ccc(Cl)cc1)N1CC(c2ccccc2)C(c2ccc(Cl)cc2)=N1` (stereo not shown) [Compound 1] showed a pKi on CB1 (Table 2) of 6.41.

With `CC(=N)N/C(=N\S(=O)(=O)c1ccc(Cl)cc1)N1C[C@H](c2ccccc2)C(c2ccc(Cl)cc2)=N1` [Compound 2E1], the “plasma levels after oral or i.p. administration” value in series [3] is “comparable”. For the same compound, in series [1] (setting [5]), the “CCl4-induced collagen deposition / liver fibrosis by Sirius red and Masson's trichrome staining” value was “more effective than rimonabant”; the “CCl4-induced elevation” value was “dramatically attenuated”. Also, in series [1] (compared with rimonabant), the “anti-fibrotic efficacy in liver fibrosis” value is recorded as “higher anti-fibrotic efficacy than rimonabant”.

Regarding `N=C(N/C(=N\S(=O)(=O)c1ccc(Cl)cc1)N1CC(c2ccccc2)C(c2ccc(Cl)cc2)=N1)C1CC1` (stereo not shown) [Compound 4], the negative-log Ki (pKi) on CB1 (Table 1) and on CB1 (Table 2) was 7.89 throughout.

Regarding `N=C(N/C(=N\S(=O)(=O)c1ccc(Cl)cc1)N1CC(c2ccccc2)C(c2ccc(Cl)cc2)=N1)c1ccccc1` (stereo not shown) [Compound 8], the pKi on CB1 (Table 1) and on CB1 (Table 2) was 7.59 each time.

With `N=C(N/C(=N\S(=O)(=O)c1ccc(Cl)cc1)N1CC(c2ccccc2)C(c2ccc(Cl)cc2)=N1)c1ccncc1` (stereo not shown) [Compound 12], the pKi on CB1 (Table 1) and at CB1 (Table 2) was 7.47 each time.

`CNC(N)=NC(=NS(=O)(=O)c1ccc(Cl)cc1)N1CC(c2ccccc2)C(c2ccc(Cl)cc2)=N1` (stereo not shown) [Compound 45] showed a pKi at CB1 (Table 2) of 6.49.

Regarding `N=C(N/C(=N\S(=O)(=O)c1ccc(Cl)cc1)N1CC(c2ccccc2)C(c2ccc(Cl)cc2)=N1)N1CCCC1` (stereo not shown) [Compound 55], the pKi at CB1 (Table 1) and at CB1 (Table 2) was 6.62 each time.

In the case of `NN/C(=N\S(=O)(=O)c1ccc(Cl)cc1)N1CC(c2ccccc2)C(c2ccc(Cl)cc2)=N1` (stereo not shown) [Compound 73], the pKi on CB1 (Table 1) and at CB1 (Table 2) was 7.48 throughout.

`Cc1c(C(=O)NN2CCCCC2)nn(-c2ccc(Cl)cc2Cl)c1-c1ccc(Cl)cc1` [rimonabant, reference compound]: in the series on recombinant human AMPK, the AMPK activity entry was “no effect”. The “CCl4-induced elevation” value in series [1] (setting [5]) is “not by rimonabant”.
